# In patent US20210032205A1, “HETEROARYL SULFONAMIDE COMPOUND AND FORMULATION FOR CONTROLLING HARMFUL ORGANISMS” (Nippon Soda Co., Ltd., priority 2018, published 2021):
# Legend:
# Mythimna separata = test: Efficacy test against Mythimna separata (artificial feed); assay type: in vivo; conditions: second-instar larvae; 1 μl of 5% emulsion (I) in 0.8 g artificial feed; 5 days at 25° C.
# Procedure: (§1) Five parts of the compound of the present invention, 93.6 parts of dimethylformamide and 1.4 parts of a polyoxyethylene alkyl aryl ether were mixed together and dissolved to obtain an emulsion (I) containing 5% of the active ingredient.
# An emulsion (II) containing 0% of an active ingredient was prepared in the same method as that described above, with the exception that 5 parts of the compound of the present invention was not mixed and dissolved.
# (§2) The mortality rate was calculated using the following equation.
# (§3) Mortality rate (%)=(number of dead insects/number of test insects)×100
# First, 0.8 g of an artificial feed (Insecta LFS, manufactured by Nosan Corporation) and 1 μl of the emulsion (I) were mixed thoroughly, and 0.2 g of the resulting mixture was placed in each of the treatment areas of a plastic test container (volume: 1.4 ml) to complete preparation of a test feed. Two second-instar larvae of Mythimna separata were inoculated into each treatment area, and the plastic test container was sealed with a plastic lid. The sealed container was placed for 5 days in a thermostatic chamber at 25° C. Subsequently, the mortality rate and the amount of feed consumed were checked. In addition, a test for a control area was carried out under the same conditions as those described above, with the exception of replacing the emulsion (I) with the emulsion (II). The test was repeated in both cases.
# Spodoptera litura = test: Efficacy test against Spodoptera litura (cabbage leaf dip); assay type: in vivo; conditions: foliar, 144 h, cabbage leaves soaked 30 seconds, second-instar larvae, 6 days after release, 25° C., read-out: mortality rate against Spodoptera litura
# Procedure: as §1, §2, §3
# (§4) The emulsion (I) was diluted with water to achieve a concentration of the compound of the present invention of 125 ppm. Cabbage leaves were soaked in the diluted liquid for 30 seconds. These cabbage leaves were then placed in a Petri dish, and five second-instar larvae of Spodoptera litura were released into the dish. The Petri dish closed with a lid was placed in a thermostatic chamber at a temperature of 25° C. and a humidity of 60%. Mortality was investigated 6 days after larvae release, and the mortality rate was calculated. The test was repeated.
# Plutella xylostella = test: Efficacy test against Plutella xylostella (cabbage leaf dip); assay type: in vivo; conditions: foliar, 72 h, cabbage leaves soaked 30 seconds, second-instar larvae, 3 days after release, 25° C., read-out: mortality rate (efficacy test against Plutella xylostella; sentence prints Spodoptera litura)
# Procedure: as §1, §2, §3
# as §4, with “of Plutella xylostella” for “of Spodoptera litura”, “investigated 3” for “investigated 6”
# Meloidogyne incognita = test: Efficacy test against Meloidogyne incognita (in vitro test); assay type: in vivo; conditions: 48 h, second-instar larvae (L2), 2 days at 15° C., 96-well microplate, read-out: nematode mortality rate against Meloidogyne incognita
# Procedure: (§5) A suspension containing about 50 second-instar larvae (L2) of Meloidogyne incognita per 0.2 mL was prepared. The compound of the present invention was dissolved in DMSO, so that a DMSO solution containing the compound at a concentration of 10,000 ppm was prepared. 200 μL of the suspension mentioned above per well and 1.0 μL of the DMSO solution of the compound mentioned above per well were dispensed into each well of a 96-well microplate. The final concentration of the compound of the present invention per well was 50 ppm. The 96-well microplate was placed for 2 days at 15° C. Subsequently, mortality was investigated, and the nematode mortality rate was calculated. […] The test was repeated.
# Caenorhabditis elegans = test: Efficacy test against Caenorhabditis elegans (in vitro test); assay type: in vivo; conditions: 48 h, mixed instars, 2 days at 25° C., 96-well microplate, read-out: nematode mortality rate against Caenorhabditis elegans
# Procedure: as §5, with “50 mixed instars” for “50 second-instar larvae (L2)”, “of Caenorhabditis elegans” for “of Meloidogyne incognita”, “[…]” for “10,000 ppm”, “at 25°” for “at 15°”
# Heterodera glycines = test: Efficacy test against Heterodera glycines (in vitro test); assay type: in vivo; conditions: 72 h, second-instar larvae (L2), 3 days at 25° C., 96-well microplate, read-out: nematode mortality rate against Heterodera glycines
# Procedure: as §5, with “of Heterodera glycines” for “of Meloidogyne incognita”, “[…]” for “10,000 ppm”, “and 0.2” for “and 1.0”, “was 10” for “was 50”, “for 3” for “for 2”, “at 25°” for “at 15°”
melting point [°C],Compound,mortality rate against Mythimna separata (Mythimna separata) [%],mortality at 125 ppm (Spodoptera litura) [%],mortality at 125 ppm (Plutella xylostella) [%],mortality at 50 ppm (Meloidogyne incognita) [%],mortality at 50 ppm (Caenorhabditis elegans) [%],mortality at 10 ppm (Heterodera glycines) [%]
–,O=C(Nc1ccc(C(F)(F)F)cc1)c1ncc(C(F)(F)F)cc1NS(=O)(=O)C(F)(F)F [Compound A-2],100,≥ 80,≥ 80,≥ 80,–,–
270,COC(=O)c1cc(F)c(F)cc1NC(=O)c1ncc(C(F)(F)F)cc1NS(=O)(=O)C(F)(F)F [Compound A-3],–,–,–,–,–,–
–,O=C(Nc1ccc(C(F)(F)F)cc1)c1ccc(Cl)nc1NS(=O)(=O)C(F)(F)F [Compound A-4],100,≥ 80,≥ 80,≥ 80,–,–
–,O=C(Nc1ccc(F)c(F)c1)c1cnc(Cl)cc1NS(=O)(=O)C(F)(F)F [Compound A-7],100,–,–,≥ 80,≥ 80,≥ 80
–,O=C(Nc1ccc(C(F)(F)F)cc1)c1cc(Cl)ncc1NS(=O)(=O)C(F)(F)F [Compound A-5],100,–,–,≥ 80,≥ 80,≥ 80
–,O=C(Nc1cc(F)c(F)cc1-n1cccn1)c1sc(Cl)cc1NS(=O)(=O)C(F)(F)F [Compound A-6],100,–,–,≥ 80,–,–
–,"O=C(Nc1ccc(C(F)(F)F)cc1)c1cnc(Cl)cc1NS(=O)(=O)C(F)(F)F [Compound A-1, 6-chloro-N-[4-(trifluoromethyl)phenyl]-4-(trifluoromethylsulfonylamino)pyridine-3-carboxamide]",100,≥ 80,≥ 80,≥ 80,≥ 80,≥ 80
